From patent publication US12509431B2, “1,4-dihydroquinazolinone compounds and uses thereof” (Edgewise Therapeutics, Inc., priority 2022, dated 2025)

Columns and labels:
Format in all cases: biochemical
[1] = molecular target: T1, Porcine Ventricle myofibrils (left ventricle of Yucatan minipigs) (Sus scrofa, UniProt P79293); assay: Myofibril ATPase assay (PK/LDH NADH-coupled), ventricle myofibrils
T1 construct: Myofibrils from porcine cardiac muscle was isolated from the left ventricle of Yucatan minipigs; tissue Exemplar Genetics; host or cells: left ventricle of Yucatan minipigs
Procedure, shortened: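 Yucatan minipig left-ventricle myofibrils; ATPase measured by PK/LDH-coupled NADH loss at 340 nm, read every 1.5-2 min for 75 min. Slopes normalized to vehicle (100%) and fit to 4-parameter logistic model; EC25 and, for inhibitors, EC50 calculated.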

[2] = molecular target: T2, myosin+human ventricle RLC (Sus scrofa, UniProt P79293); assay: NADH-coupled actin-activated ATPase assay, myosin + human ventricle RLC; details: 2 μM myosin, rabbit skeletal actin, 25° C., 1% DMSO
T2 construct: Full-length myosin was resuspended to 1 mg/mL
Protocol: (§1) Full-length myosin was resuspended to 1 mg/mL in a buffer containing 500 mM KCl, 10 mM KPi, 15 mM CDTA, pH 8.5. Triton-X was then added to a final concentration of […], and the suspension was agitated for 15 minutes at room temperature to selectively remove the regulatory light chain (RLC). RLC-removed myosin was then precipitated and collected and resuspended in a buffer containing 400 mM KCl, 50 mM Mops, pH 7, 2 mM MgCl2, and 1 mM DTT. Recombinantly expressed and purified human ventricle RLC was added in a 3-fold molar excess to myosin and incubated on ice for 2 hours to allow for reassociation of the RLC onto myosin. Triton (0.1%) was added to the reaction to prevent any non-specific binding events. RLC-exchanged myosin was then precipitated and collected and resuspended in a buffer containing 12 mM PIPES, pH 6.8, […], 2 mM MgCl2, and 1 mM DTT. RLC removal and exchange were confirmed by SDS-PAGE and proteins were visualized using coomassie stain.
(§2) Myosin was resuspended in buffer A (f.c.=12 mM PIPES, pH 6.8, 30 mM KCl, 2 mM MgCl2, 1 mM DTT, 0.1 mg/mL BSA, 0.01% (v/v) Antifoam 204, and 0.6% (v/v) PK/LDH (final reaction contains ≥3.6 U/mL PK and >5.4 U/mL LDH)) at final concentrations of 1 μM for myosin+native RLC and 2 μM for myosin+removed RLC and myosin+human ventricle RLC. Buffer A was then mixed with an equal volume of buffer B (f.c.=12 mM PIPES, pH 6.8, 30 mM KCl, 2 mM MgCl2, 1 mM DTT, 0.1 mg/mL BSA, 0.01% (v/v) Antifoam 204, 0.5 mM NADH, 1.5 mM phosphoenolpyruvate, 1 mM ATP, and 0.3 mg/mL filamentous rabbit skeletal actin) in a 384-well plate. Dose-dependent compound effects were assessed by adding the compounds at varying concentrations between 100 μM and 2 nM, all with a constant final DMSO concentration of 1% v/v. The reactions were run at a constant temperature of 25° C. in the plate reader to monitor the change in A340 over time. Measurements were taken every 90 sec for 75 min to generate raw time-domain absorbance data, which was processed to normalized reaction rates. Normalized enzymatic rates were calculated, using rates observed in 1% (v/v) in DMSO as 100% and 0 slope as 0%. Compound-specific activity curves were generated by plotting the normalized rates versus compound concentration and fitting the data to a 4-parameter logistic model. In addition to the fit parameters, the IC25% was calculated, relative to the 100% normalized value.

Porcine Atria myofibrils = assay: Myofibril ATPase assay (PK/LDH NADH-coupled), atria myofibrils
Procedure, shortened: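 Porcine atrial myofibril ATPase followed via PK/LDH-coupled NADH depletion, absorbance at 340 nm read every 1.5-2 min over 75 min. Slopes (mAU/min) normalized to vehicle as 100% and fit to a 4-parameter logistic; EC25% derived, plus EC50% for inhibitors.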

myosin+removed RLC = molecular target: T3, myosin+removed RLC (Sus scrofa, UniProt P79293); assay: NADH-coupled actin-activated ATPase assay, myosin + removed RLC; details: 2 μM myosin, rabbit skeletal actin, 25° C., 1% DMSO
T3 construct: Full-length myosin was resuspended to 1 mg/mL
Protocol: as §1, §2

T2 sequence (P79293 whole entry): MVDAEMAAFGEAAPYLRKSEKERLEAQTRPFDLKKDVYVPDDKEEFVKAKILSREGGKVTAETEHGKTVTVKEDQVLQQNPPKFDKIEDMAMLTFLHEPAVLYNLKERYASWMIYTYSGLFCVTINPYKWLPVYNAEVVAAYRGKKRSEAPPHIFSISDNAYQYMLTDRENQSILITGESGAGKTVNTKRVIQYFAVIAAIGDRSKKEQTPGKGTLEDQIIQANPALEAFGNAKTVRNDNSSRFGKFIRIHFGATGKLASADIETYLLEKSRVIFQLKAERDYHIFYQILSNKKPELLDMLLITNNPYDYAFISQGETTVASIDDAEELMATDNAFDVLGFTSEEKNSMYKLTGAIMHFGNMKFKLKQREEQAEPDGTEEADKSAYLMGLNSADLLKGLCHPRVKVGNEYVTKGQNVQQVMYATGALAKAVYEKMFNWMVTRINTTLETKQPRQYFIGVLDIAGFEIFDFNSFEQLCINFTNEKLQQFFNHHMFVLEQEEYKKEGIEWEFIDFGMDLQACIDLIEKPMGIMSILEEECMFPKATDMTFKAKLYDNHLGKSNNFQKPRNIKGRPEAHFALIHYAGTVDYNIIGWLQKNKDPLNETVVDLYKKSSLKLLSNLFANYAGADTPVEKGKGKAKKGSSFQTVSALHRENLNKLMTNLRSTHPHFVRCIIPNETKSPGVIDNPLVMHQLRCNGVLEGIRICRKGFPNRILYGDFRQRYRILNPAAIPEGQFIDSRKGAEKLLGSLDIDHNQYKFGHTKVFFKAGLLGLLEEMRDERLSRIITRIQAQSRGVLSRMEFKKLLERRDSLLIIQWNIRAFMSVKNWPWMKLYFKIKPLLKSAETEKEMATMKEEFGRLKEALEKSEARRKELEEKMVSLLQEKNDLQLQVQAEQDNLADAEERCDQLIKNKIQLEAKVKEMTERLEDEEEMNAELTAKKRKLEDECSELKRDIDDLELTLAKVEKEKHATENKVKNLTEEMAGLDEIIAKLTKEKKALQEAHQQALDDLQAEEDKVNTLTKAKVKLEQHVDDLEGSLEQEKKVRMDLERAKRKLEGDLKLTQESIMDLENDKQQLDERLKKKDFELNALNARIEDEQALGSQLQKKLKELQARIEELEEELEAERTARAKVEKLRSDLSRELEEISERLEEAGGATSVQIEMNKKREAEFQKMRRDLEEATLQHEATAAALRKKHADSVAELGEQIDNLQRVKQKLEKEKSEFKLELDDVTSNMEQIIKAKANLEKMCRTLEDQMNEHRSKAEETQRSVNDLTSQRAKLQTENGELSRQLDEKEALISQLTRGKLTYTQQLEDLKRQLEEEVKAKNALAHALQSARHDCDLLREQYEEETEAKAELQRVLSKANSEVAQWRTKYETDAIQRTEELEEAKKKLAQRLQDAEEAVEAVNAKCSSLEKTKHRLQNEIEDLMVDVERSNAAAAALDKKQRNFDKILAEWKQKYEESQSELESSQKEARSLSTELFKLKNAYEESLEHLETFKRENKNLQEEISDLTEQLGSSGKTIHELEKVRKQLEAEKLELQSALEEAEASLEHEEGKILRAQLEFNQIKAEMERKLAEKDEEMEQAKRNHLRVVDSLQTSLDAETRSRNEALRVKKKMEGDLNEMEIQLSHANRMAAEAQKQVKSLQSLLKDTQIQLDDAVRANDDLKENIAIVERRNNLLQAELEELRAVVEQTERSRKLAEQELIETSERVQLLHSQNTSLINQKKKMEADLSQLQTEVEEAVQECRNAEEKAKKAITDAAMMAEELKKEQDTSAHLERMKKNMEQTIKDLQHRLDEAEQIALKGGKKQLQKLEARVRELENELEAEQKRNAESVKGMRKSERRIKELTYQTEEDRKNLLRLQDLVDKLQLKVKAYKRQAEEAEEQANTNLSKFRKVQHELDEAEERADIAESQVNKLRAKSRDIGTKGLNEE
T3 sequence (P79293 whole entry): as above
T1 sequence (P79293 whole entry): as above

Row | Porcine Ventricle IC25 ([1]; Table 8) [µM] | Potency, Full-length myosin + exchanged human ventricle RLC [2] [µM] | Porcine Atria IC25 (Porcine Atria myofibrils; Table 8) [µM] | Potency, Full-length myosin + RLC removed (myosin+removed RLC) [µM] | Porcine Ventricle IC25 ([1]; Table 7) [µM] | Porcine Atria IC25 (Porcine Atria myofibrils; Table 7) [µM] | Structure (SMILES)
1 | 0.0512 | 0.67 | 0.02 | >100.0 |  |  | O=C(CN1Cc2cc(F)ccc2NC1=O)N[C@@H]1COc2cc(F)cc(F)c21 [Compound B145]
2 | 0.07743 | 0.33 | 0.03 | >100.0 |  |  | C[C@H](NC(=O)CN1Cc2c(ccc(F)c2F)NC1=O)c1ccc(C#N)cc1F [Compound B189]
3 | 0.1913 | 0.44 | 0.04 | >100.0 |  |  | C[C@H](NC(=O)CN1Cc2c(ccc(F)c2F)NC1=O)c1ncc(F)cc1F [Compound B191]
4 |  | 0.40 |  | >100.0 | 0.2832 | 0.08 | O=C(CN1C(=O)Nc2cccnc2C12CC2)N[C@@H]1COc2cc(F)cc(F)c21 [Compound N33]

The remaining lines, values behind:

Row | Structure (SMILES) | Porcine Ventricle IC25 ([1]; Table 8) [µM] | Potency, Full-length myosin + exchanged human ventricle RLC [2] [µM] | Porcine Atria IC25 (Porcine Atria myofibrils; Table 8) [µM] | Potency, Full-length myosin + RLC removed (myosin+removed RLC) [µM] | Porcine Ventricle IC25 ([1]; Table 7) [µM] | Porcine Atria IC25 (Porcine Atria myofibrils; Table 7) [µM]
5 | N#Cc1cnc2c(c1)OCC2NC(=O)CN1Cc2c(ccc(F)c2F)NC1=O (single isomer, unassigned) [Compound B65] | 0.1667 | 0.69 | 0.06 | >100.0 |  | 
6 | CC(NC(=O)CN1Cc2cc(F)ccc2NC1=O)c1ccc(C#N)cc1F (single isomer, unassigned) [Compound B206] | 0.04769 | 0.68 | 0.03 | >100.0 |  | 
7 | C[C@@H](NC(=O)CN1Cc2c(ccc(F)c2F)NC1=O)c1ncc(C#N)cc1F [Compound B141, (R)—N-(1-(5-cyano-3-fluoropyridin-2-yl)ethyl)-2-(5,6-difluoro-2-oxo-1,4-dihydroquinazolin-3(2H)-yl)acetamide] | 3.094 | 13.90 | 0.13 | >100.0 |  | 
8 | O=C(CN1Cc2c(ccc(F)c2F)NC1=O)N[C@@H]1COc2cc(F)cc(F)c21 [Compound B147] | 0.07766 | 0.48 | 0.05 | >100.0 |  | 
9 | C[C@H](NC(=O)CN1Cc2cc(F)ccc2NC1=O)c1ncc(C#N)cc1F [Compound B199] | 0.5693 | 0.629 | 0.09 | >100.0 |  | 
10 | C[C@H](NC(=O)CN1Cc2cc(F)ccc2NC1=O)c1ccc(F)cc1F [Compound B247, N-[(1S)-1-(2,4-Difluorophenyl)ethyl]-2-(6-fluoro-2-oxo-1,4-dihydroquinazolin-3-yl)acetamide] | 0.2968 | 1.02 | 0.06 | >100.0 |  | 
